Laboratory results: patent US20210130420A1, “RECOMBINANT BINDING PROTEINS TARGETING HER2 AND SERUM ALBUMIN, AND THEIR USES” (Molecular Partners AG, priority 2016, published 2021)

Assays:
[1] = system: BT474 cells; assay: Induction of apoptosis, Caspase 3/7 activation; type: cell-based, human; settings: FIG. 7
Description: Briefly, 10000 BT474 cells were seeded per well in a 96 well plate in100 μl complete medium and incubated for 24 hours. […] Caspase Glo reagent was added according to the manufactures protocol for 1 hour. Caspase 3/7 activation was monitored by measuring luciferase activity. Alternatively induction of apoptosis was determined using the Cell Death Detection [sequence] system (Roche, Switzerland). The assay was performed according to the manufactures protocol. Cell number and incubations times were similar to the Caspase Glo readout. Data were analyzed using the GraphPad prism software, plotting concentration on the x-axis against OD405/490 nm or relative light units (RLU; measured on a Tecan M-1000 reader) on the y-axis. Data were fitted using a non-linear regression fit (log(agonist) vs. response—Variable slope (four parameters)).

[2] = system: GXA3039; assay: Gastric cancer patient derived tumor xenograft mouse model GXA3039; type: in vivo; settings: GXA3039, FIG. 4D; Protein #21 60 mg/kg, antibodies 10 mg/kg, every three days for 6 times
Description: Further, Protein #21 was expressed and purified as described in Example 1. […] All groups were dosed every three days for 6 times. Briefly, tumor fragments were obtained from xenografts in serial passage in nude mice. After removal from donor mice, tumors were cut into fragments (4-5 mm diameter) for subcutaneous implantation. Mice were randomized into groups when tumors reached a volume of approximately 100-120 mm^3. The day of randomization and treatment initiation is designated as day 0 in each experiment. Tumor growth was monitored by two-dimensional measurement with a caliper on the day of randomization and then twice weekly. Relative volumes of individual tumors (individual RTVs) for Day x were calculated by dividing the individual tumor volume on Day x (Tx) by the individual volume of the same tumor on Day 0 (TO) multiplied by 100%. Tumor inhibition for a particular day (T/C in %) was calculated from the ratio of the median RTV values of test versus control groups multiplied by 100%.

[3] = system: AKT; assay: Phospho-proteome mass spectrometry of BT474 cells; type: cell-based, human; settings: 100 nM, 18 hours
Text: (§1) Protein #21 was expressed and purified as described in Example 1. […] Cells were then subjected to a phospho-proteome mass-spectrometry analysis as described by Britton, D., et al. (Britton, D., Zen, Y., Quaglia, A., Selzer, S., Mitra, VI., Lössner, C., Jung, S., Bohm, G., Schmid, P., Prefot, P., Hoehle, C., Koncarevic, S., Gee, J., Nicholson, R., Ward, M., Castellano, L., Stebbing, J., Zucht, H. D., Sarker, D., Heaton, N., and Pike, I., 2014. PLOS One 9 (3), e90948).

[4] = system: RAF; assay: Phospho-proteome mass spectrometry of BT474 cells; type: cell-based, human; settings: 100 nM, 18 hours
Text: as §1

[5] = system: RPS6KB1/S6 Kinase; assay: Phospho-proteome mass spectrometry of BT474 cells; type: cell-based, human; settings: 100 nM, 18 hours
Text: as §1

[6] = system: mTOR; assay: Phospho-proteome mass spectrometry of BT474 cells; type: cell-based, human; settings: 100 nM, 18 hours
Text: as §1

[7] = system: AKT; assay: Phospho-site specific ELISA, BT474 cells; type: cell-based, human; settings: 100 nM, 18 hours
[8] = system: HER3; assay: Phosphorylation state ELISA, BT474 cells; type: cell-based, human; settings: 100 nM, 18 hours
[9] = system: HER1/EGFR; assay: Phosphorylation state ELISA, BT474 cells; type: cell-based, human; settings: 100 nM, 18 hours
[10] = system: Foxo3a protein; assay: Cellular levels of Foxo3a protein in BT474 cells; type: cell-based, human; settings: compared to an exposure to PBS only
Text: as §1
(§2) It is known to the practitioner in the art, that Akt1 phosphorylates Foxo3a, resulting in the degradation of Foxo3a and promotion of cell survival. Inhibition of Act phosphorylation leads to stabilization of Foxo3a and thus increase in Foxo3a levels. At increased levels Foxo3a can translocate to the nucleus and induce apoptosis.

[11] = system: Foxo3a protein; assay: Cellular levels of Foxo3a protein in NCI-N87 cells; type: cell-based; settings: compared to an exposure to PBS only
Text: as §1, §2

For Pertuzumab [reference compound], the “induction of apoptosis in BT474 cells” value [1] was “did not induce apoptosis”, the “inhibition of tumor growth, second experiment” value [2] was “significantly less efficacious” and the “AKT S124 phosphorylation” value [3] was 1.04 fold change to PBS. The “AKT S129 phosphorylation” value [3] was 1.16 fold change to PBS, the “RAF S642 phosphorylation” value [4] was 1.2 fold change to PBS and the “RAF T631/T638/T640/T641/S642 phosphorylation” value [4] was 1.01 fold change to PBS. For the same substance, the “RPS6KB1/S6Kinase S441/T444/S447 phosphorylation” value [5] was 1.02 fold change to PBS, the “RPS6KB1/S6Kinase T444/S447 phosphorylation” value [5] was 1.04 fold change to PBS and the “mTOR S2448/S2454 phosphorylation” value [6] was 1.09 fold change to PBS. For the same substance, the “AKT S473 phosphorylation” value [7] was 0.73 fold change to PBS, the “HER3 Pan-Phospho-Tyrosine” value [8] was 0.78 fold change to PBS and the “HER1/EGFR Pan-Phospho-Tyrosine” value [9] was 0.68 fold change to PBS. The “increase of cellular levels of Foxo3a protein” value [10] was 1.21 fold and the “increase of cellular levels of Foxo3a protein” value [11] was 1.25 fold.
